The NIST ThermoML archive (doi:10.1021/je200808q)

Experiment: mn = molality of the nth substance listed, in mol/kg
Details: Liquid, Taylor dispersion method

[Cl-].[K+] [potassium chloride] + O
Details | binary diffusion coefficient [m2/s]
298.15 K, 160 kPa, m1 = 0 | 1.94e-09
298.15 K, 240 kPa, m1 = 1 | 1.89e-09
298.15 K, 290 kPa, m1 = 2.5 | 2.02e-09
298.15 K, 480 kPa, m1 = 4.5 | 2.17e-09
298.15 K, 2290 kPa, m1 = 2.5 | 2.02e-09
298.15 K, 4500 kPa, m1 = 2.5 | 2.04e-09
298.15 K, 10170 kPa, m1 = 1 | 1.91e-09
298.15 K, 14990 kPa, m1 = 0 | 1.94e-09
298.15 K, 24920 kPa, m1 = 2.5 | 2.04e-09
298.15 K, 27060 kPa, m1 = 4.5 | 2.14e-09
298.15 K, 28210 kPa, m1 = 1 | 1.92e-09
298.15 K, 30920 kPa, m1 = 0 | 1.95e-09
298.15 K, 32600 kPa, m1 = 2.5 | 2.05e-09
298.15 K, 37390 kPa, m1 = 2.5 | 2.04e-09
298.15 K, 38630 kPa, m1 = 1 | 1.92e-09
298.15 K, 43800 kPa, m1 = 4.5 | 2.17e-09
298.15 K, 45590 kPa, m1 = 1 | 1.95e-09
298.15 K, 47430 kPa, m1 = 2.5 | 2.04e-09
298.15 K, 48170 kPa, m1 = 0 | 1.95e-09
298.15 K, 59030 kPa, m1 = 1 | 1.96e-09
298.15 K, 62940 kPa, m1 = 0 | 1.97e-09
298.15 K, 64970 kPa, m1 = 2.5 | 2.07e-09
298.15 K, 66020 kPa, m1 = 4.5 | 2.18e-09
298.15 K, 66170 kPa, m1 = 2.5 | 2.08e-09
298.15 K, 67070 kPa, m1 = 1 | 1.98e-09
298.15 K, 67630 kPa, m1 = 2.5 | 2.08e-09
323.15 K, 500 kPa, m1 = 4.5 | 3.34e-09
323.15 K, 580 kPa, m1 = 2.5 | 3.15e-09
323.15 K, 610 kPa, m1 = 1 | 3.03e-09
323.15 K, 640 kPa, m1 = 0 | 3.02e-09
323.15 K, 3950 kPa, m1 = 4.5 | 3.32e-09
323.15 K, 15300 kPa, m1 = 1 | 3.06e-09
323.15 K, 15460 kPa, m1 = 0 | 3.02e-09
323.15 K, 31370 kPa, m1 = 4.5 | 3.35e-09
323.15 K, 33580 kPa, m1 = 0 | 3.08e-09
323.15 K, 40890 kPa, m1 = 2.5 | 3.12e-09
323.15 K, 43400 kPa, m1 = 1 | 3.08e-09
323.15 K, 45210 kPa, m1 = 2.5 | 3.18e-09
323.15 K, 47480 kPa, m1 = 2.5 | 3.17e-09
323.15 K, 49570 kPa, m1 = 4.5 | 3.29e-09
323.15 K, 52060 kPa, m1 = 1 | 3.1e-09
323.15 K, 60490 kPa, m1 = 2.5 | 3.12e-09
323.15 K, 62690 kPa, m1 = 4.5 | 3.35e-09
323.15 K, 64860 kPa, m1 = 2.5 | 3.15e-09
323.15 K, 68560 kPa, m1 = 0 | 3.09e-09
323.15 K, 68970 kPa, m1 = 1 | 3.1e-09
348.15 K, 650 kPa, m1 = 0 | 4.48e-09
348.15 K, 660 kPa, m1 = 1 | 4.23e-09
348.15 K, 700 kPa, m1 = 2.5 | 4.52e-09
348.15 K, 730 kPa, m1 = 4.5 | 4.65e-09
348.15 K, 12830 kPa, m1 = 4.5 | 4.59e-09
348.15 K, 15720 kPa, m1 = 0 | 4.49e-09
348.15 K, 18050 kPa, m1 = 2.5 | 4.55e-09
348.15 K, 25820 kPa, m1 = 1 | 4.25e-09
348.15 K, 29270 kPa, m1 = 0 | 4.44e-09
348.15 K, 29960 kPa, m1 = 2.5 | 4.57e-09
348.15 K, 31120 kPa, m1 = 1 | 4.26e-09
348.15 K, 32970 kPa, m1 = 4.5 | 4.62e-09
348.15 K, 35870 kPa, m1 = 1 | 4.24e-09
348.15 K, 39760 kPa, m1 = 1 | 4.23e-09
348.15 K, 41210 kPa, m1 = 1 | 4.25e-09
348.15 K, 41980 kPa, m1 = 1 | 4.25e-09
348.15 K, 45150 kPa, m1 = 2.5 | 4.58e-09
348.15 K, 45330 kPa, m1 = 1 | 4.26e-09
348.15 K, 46780 kPa, m1 = 0 | 4.49e-09
348.15 K, 62420 kPa, m1 = 1 | 4.24e-09
348.15 K, 64020 kPa, m1 = 1 | 4.25e-09
348.15 K, 65910 kPa, m1 = 4.5 | 4.63e-09
348.15 K, 66700 kPa, m1 = 0 | 4.52e-09
348.15 K, 67090 kPa, m1 = 1 | 4.25e-09
348.15 K, 68900 kPa, m1 = 2.5 | 4.59e-09
373.15 K, 740 kPa, m1 = 4.5 | 6.25e-09
373.15 K, 820 kPa, m1 = 0 | 6.11e-09
373.15 K, 820 kPa, m1 = 1 | 5.94e-09
373.15 K, 940 kPa, m1 = 2.5 | 5.92e-09
373.15 K, 17140 kPa, m1 = 2.5 | 5.92e-09
373.15 K, 17780 kPa, m1 = 4.5 | 6.22e-09
373.15 K, 23410 kPa, m1 = 1 | 5.93e-09
373.15 K, 24180 kPa, m1 = 0 | 6.14e-09
373.15 K, 24360 kPa, m1 = 2.5 | 5.94e-09
373.15 K, 31320 kPa, m1 = 2.5 | 5.89e-09
373.15 K, 41280 kPa, m1 = 4.5 | 6.24e-09
373.15 K, 42090 kPa, m1 = 1 | 5.94e-09
373.15 K, 43130 kPa, m1 = 0 | 6.11e-09
373.15 K, 47550 kPa, m1 = 2.5 | 5.98e-09
373.15 K, 47900 kPa, m1 = 4.5 | 6.21e-09
373.15 K, 54290 kPa, m1 = 4.5 | 6.24e-09
373.15 K, 54410 kPa, m1 = 4.5 | 6.24e-09
373.15 K, 57260 kPa, m1 = 2.5 | 5.86e-09
373.15 K, 59590 kPa, m1 = 2.5 | 5.96e-09
373.15 K, 63050 kPa, m1 = 2.5 | 5.96e-09
373.15 K, 64210 kPa, m1 = 1 | 5.97e-09
373.15 K, 64280 kPa, m1 = 0 | 6.18e-09
373.15 K, 65700 kPa, m1 = 4.5 | 6.27e-09
423.15 K, 3080 kPa, m1 = 0 | 1.03e-08
423.15 K, 3410 kPa, m1 = 1 | 9.43e-09
423.15 K, 4440 kPa, m1 = 2.5 | 9.69e-09
423.15 K, 13020 kPa, m1 = 4.5 | 9.27e-09
423.15 K, 15130 kPa, m1 = 1 | 9.45e-09
423.15 K, 15180 kPa, m1 = 2.5 | 9.67e-09
423.15 K, 15260 kPa, m1 = 2.5 | 9.68e-09
423.15 K, 18510 kPa, m1 = 0 | 1.03e-08
423.15 K, 33580 kPa, m1 = 0 | 1.03e-08
423.15 K, 34630 kPa, m1 = 2.5 | 9.7e-09
423.15 K, 34720 kPa, m1 = 1 | 9.45e-09
423.15 K, 40540 kPa, m1 = 4.5 | 9.29e-09
423.15 K, 56030 kPa, m1 = 2.5 | 9.7e-09
423.15 K, 61620 kPa, m1 = 1 | 9.48e-09
423.15 K, 63300 kPa, m1 = 0 | 1.03e-08
423.15 K, 65050 kPa, m1 = 2.5 | 9.72e-09
423.15 K, 65640 kPa, m1 = 1 | 9.49e-09
423.15 K, 68930 kPa, m1 = 4.5 | 9.3e-09
